Tests used:
[1] = molecular target: T1, SARS-CoV-2 nsp10-nsp16 complex (Severe acute respiratory syndrome coronavirus 2, UniProt P0DTD1); format: biochemical; details: tested at 1 μM by SPA assay, duplicate
T1 construct: Nsp10-nsp16 reactions contained 100 nM nsp10-nsp16 complex

Calu-3 cells = test: Steady-state intracellular uptake in Calu-3 cells; format: in vitro ADME; details: Calu-3, 60 min incubation, 50 μM at t = 0
Description: (§1) While an enzymatic MTase assay represents a valuable fast screening platform providing the information that can be directly used for SAR analyses, it is not fully predictive for the compounds’ activity in whole cells. In order to verify the ability of the compounds to reach the intracellular compartment, we measured the steady-state accumulation of representative compounds in intact CCRF-CEM, VERO-E6, and Calu-3 cells (Tables 3 and S2). […] Compound 12q was almost completely cleared from the medium after 60 min incubation with the cells rendering it among the most permeable compounds of the series based on Kp values. It should be noted that the apparent intracellular concentration of the compounds may be biased by their potential metabolism. Therefore, we decided to subject the selected derivatives to in vitro stability studies. […]
(§2) methyltransferase activity as counts per minute (CPM). The CPM measurements in the absence of compound (5% DMSO) for each enzyme was defined as 100% activity.
(§3) 3.3. Intracellular Uptake
(§4) Steady-state cellular uptake was measured in CCRF-CEM cells (ATCC, CRL-119), VERO-E6 cells (ATCC, CRL-1586) and Calu-3 cells (HTB-55), respectively. Suspension cells (CCRF-CEM) were treated as follows: Prior to the experiment, cells were washed by centrifugation (250 x g, 5 min) in prewarmed (37 °C) serum-free RPMI medium and resuspended in the same vehicle to a concentration of 2 x 10^7 cells per mL. The cell suspension was distributed into the microtubes in 500 μL aliquots (10^7 cells), and the uptake process was initiated by the addition of 2.5 μL of the 10 mM DMSO solutions of the compounds (50 μM final conc.). Samples were incubated for 60 min at 37 °C in a CO 2 incubator using a rotary stirrer. The uptake was terminated by centrifugation at 900 x g for 5 min, at +4 °C. The medium was stored at −20 °C for later analysis of the extracellular concentration of the compounds. The cells were washed two times with 1 mL PBS (900 x g, 5 min, +4 °C), and also stored at −20 °C for subsequent analysis of the intracellular concentration of the compounds. At the day of the analysis, both media and the pelleted cells were quickly thawed. The cell pellets were extracted with 200 μL of ice-cold methanol by vigorous shaking, further diluted 1:1 with water and centrifuged at 20 000 x g for 10 min. As for the media samples, 10 μL aliquots were extracted with 990 μL of 50% methanol. The samples were then transferred to ECHO® -compatible 384-well plates and the amount of analytes were quantified by the ECHO -MS® System (Sciex) where acoustic droplet ejection module is coupled with Sciex 6500® triple quadrupole mass spectrometer operating with an electrospray ionization source. Spectrometer was run in the multiple reaction monitoring (MRM) mode. When necessary, the processed samples were further diluted in 50% methanol to fit in the calibration range. Calibration curves of the compounds in 50% methanol were measured alongside the samples within the same run. The ra tio between the total compound concentration in the cells and compound concentration in the medium (K p) at t=60 min was calculated according to: Kp = (Acell / Vcell) / Cmedium, where Acell is the amount of compound in the cell lysate, Vcell is the CCRF-CEM cell volume (3.38 μL/10^7 cells)16 and Cmedium is the compound concentration in the medium sample after correcting for sample dilution. Experiments were performed in duplicates.
(§5) For adherent cells (Vero E6 and Calu-3), the workflow was modified as follows: Cells were seeded on 6-well plates at a concentration of […] and 8.2 x 10^5 cells/well for Vero E6 and Calu-3, respectively, in 3 mL of serum-free culture media. The cells were left to attach overnight, the medium was then aspirated and replenished with 2 mL of fresh media containing the compounds (50 µM final conc). After 60 min at 37 °C the media was aspirated and the cells were washed twice with 1 mL of PBS. Then, 1 mL of fresh PBS was added and the cells were […]

[2] = Caco-2 permeability assay; format: in vitro ADME; details: human; for recovery at 3 h, 5 µM / Papp A→B at 3 h, 5 µM / Papp B→A at 3 h, 5 µM: Caco-2, 5 µM; for Papp A→B at 3 h, 5 µM / Papp B→A at 3 h, 5 µM: pH 7.4/7.4, 3 h; for efflux ratio at 3 h, 5 µM: Caco-2, (Papp B-A)/(Papp A-B)
Protocol: (§6) 3.6. Caco-2 permeability assay
(§7) Transepithelial bi-directional transport of tested compounds (5 µM, pH 7.4/7.4) across the Caco-2 monolayers was studied using the BD BioCoat HTS Caco -2 assay system (BD Biosciences, Bedford, MA) as described in detail elsewhere.17 Aliquots were collected from the donor and acceptor compartment at the end of transport period (3 h), integrity of monolayers were verified using Lucifer Yellow dye and the compounds were quantified using LC-MS/MS (Sciex 6500® triple quadrupole). The apparent permeability coefficient (Papp) was calculated from the following equation: Papp = (dQ / dt) / C0 * A, where dQ/dt is the rate of absorption of the drug across the cells, C0 is the donor compartment concentration at time zero, and A is the area of the monolayer. Efflux ratio was expressed as (Papp B-A) / (Papp A-B). Recovery (%) was determined as (total compound mass in donor and receiver compartments at the end of the incubation / initial compound mass in the donor compartment) x 100.

Caco-2 monolayers = test: Caco-2 permeability assay; format: in vitro ADME; details: Caco-2, 5 µM, pH 7.4/7.4, 3 h
Protocol: as §6, §7

[3] = Steady-state intracellular uptake in Calu-3 cells; format: in vitro ADME; details: human, Calu-3 cells; Calu-3, 60 min incubation, 50 μM at t = 0; read-out: Kp (intracellular accumulation ratio IC/EC) (converted)
Description: as §1, §2, §3, §4, §5

| Compound | Selectivity against SARS-CoV-2 nsp10-nsp16 complex [1] | EC (extracellular concentration in the media at t = 60 min) ± sd (Calu-3 cells) [µM] | IC (intracellular concentration in the cells at t = 60 min) ± sd (Calu-3 cells) | recovery at 3 h, 5 µM [2] [%] | Papp A→B at 3 h, 5 µM [2] [×10⁻⁶ cm/s] | efflux ratio at 3 h, 5 µM [2] | Papp B-A (Caco-2 monolayers) | Kp at 1 h, 50 µM [3] | Papp B→A at 3 h, 5 µM [2] [×10⁻⁶ cm/s] |
| --- | --- | --- | --- | --- | --- | --- | --- | --- | --- |
| COc1ccc(S(=O)(=O)N(C)C[C@H]2O[C@@H](n3cc(C#Cc4cnc5ccccc5c4)c4c(N)ncnc43)[C@H](O)[C@@H]2O)cc1C#N [Compound 12q] | selective | 5.6 ± 5.7 | 89,640 ± 6514 μM | 4 | 0.2 | 0.4 | 0.0 ± 0.0 x10-6 (cm/s) | – | – |
| COc1ccc(S(=O)(=O)N(C)C[C@H]2O[C@@H](n3cc(C#Cc4cccnc4)c4c(N)ncnc43)[C@H](O)[C@@H]2O)cc1C#N [Compound 12s] | selective | 14.7 ± 0.8 | – | 3 | 0.4 ± 0.3 | 1.3 | – | 106 | 0.3 ± 0.1 |
| CCN(C[C@H]1O[C@@H](n2cc(C#Cc3cnc4ccccc4c3)c3c(N)ncnc32)[C@H](O)[C@@H]1O)S(=O)(=O)c1ccc(OC)c(C#N)c1 [Compound 12e] | – | 5 ± 4 | – | – | – | – | – | 1770 | – |
| CCN(C[C@H]1O[C@@H](n2cc(C#Cc3cccnc3)c3c(N)ncnc32)[C@H](O)[C@@H]1O)S(=O)(=O)c1ccc(OC)c(C#N)c1 [Compound 12l] | – | – | – | 17 | 0.1 | 0.9 | – | – | 0.1 |
| COc1ccc(S(=O)(=O)N(C)C[C@H]2O[C@@H](n3cc(C#Cc4ccc(C(N)=O)cc4)c4c(N)ncnc43)[C@H](O)[C@@H]2O)cc1C#N [Compound 12r] | selective | 4.0 ± 0.2 | – | 1 | 0.1 ± 0.1 | 0.1 | – | 1250 | 0.1 |

Source: PMC10398685 (ACS Omega, 2023)
